The text below walks through data of ChEMBL document CHEMBL1149945, “Synthesis and structure-activity relationships of potent retinoid X receptor ligands” (Bioorg Med Chem Lett, 1997).

For assay [1], the target named is T1, Retinoic acid receptor gamma (Homo sapiens, UniProt P13631).
T1 sequence (P13631 whole entry): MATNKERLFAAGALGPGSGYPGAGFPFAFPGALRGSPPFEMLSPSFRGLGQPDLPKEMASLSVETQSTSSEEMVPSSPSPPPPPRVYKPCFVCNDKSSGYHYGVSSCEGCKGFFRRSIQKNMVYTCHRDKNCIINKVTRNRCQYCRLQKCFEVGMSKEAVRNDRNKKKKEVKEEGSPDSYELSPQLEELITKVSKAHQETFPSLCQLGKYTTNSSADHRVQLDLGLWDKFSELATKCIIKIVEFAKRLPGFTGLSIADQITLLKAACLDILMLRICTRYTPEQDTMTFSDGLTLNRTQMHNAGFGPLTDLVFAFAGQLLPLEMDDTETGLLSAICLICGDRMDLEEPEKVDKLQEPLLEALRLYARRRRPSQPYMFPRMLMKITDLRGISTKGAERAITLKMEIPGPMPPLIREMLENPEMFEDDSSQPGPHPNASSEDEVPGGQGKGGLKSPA
Kind of assay: Inhibition of [3H]-ATRA binding to Retinoic acid receptor RAR gamma.

Assay [2] has as its target T2, Retinoic acid receptor RXR-gamma (Mus musculus, UniProt P28705).
T2 sequence (P28705 whole entry): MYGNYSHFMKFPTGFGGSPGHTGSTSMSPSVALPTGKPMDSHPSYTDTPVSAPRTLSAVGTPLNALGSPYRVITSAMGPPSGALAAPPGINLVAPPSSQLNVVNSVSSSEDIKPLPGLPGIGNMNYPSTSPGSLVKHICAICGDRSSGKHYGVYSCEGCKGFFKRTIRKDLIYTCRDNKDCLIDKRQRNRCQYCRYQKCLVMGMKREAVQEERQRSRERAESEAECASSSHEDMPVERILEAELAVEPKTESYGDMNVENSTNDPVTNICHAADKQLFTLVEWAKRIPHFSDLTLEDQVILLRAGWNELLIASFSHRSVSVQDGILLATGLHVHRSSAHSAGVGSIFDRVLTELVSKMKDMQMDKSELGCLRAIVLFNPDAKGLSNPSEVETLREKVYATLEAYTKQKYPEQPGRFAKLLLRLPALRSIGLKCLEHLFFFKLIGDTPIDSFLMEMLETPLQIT
Kind of assay: Inhibition of [3H]9-cis-RA binding to Retinoid X receptor RXR gamma.

Assay [3] addresses T3, Retinoic acid receptor beta (Homo sapiens, UniProt P10826).
T3 sequence (P10826 whole entry): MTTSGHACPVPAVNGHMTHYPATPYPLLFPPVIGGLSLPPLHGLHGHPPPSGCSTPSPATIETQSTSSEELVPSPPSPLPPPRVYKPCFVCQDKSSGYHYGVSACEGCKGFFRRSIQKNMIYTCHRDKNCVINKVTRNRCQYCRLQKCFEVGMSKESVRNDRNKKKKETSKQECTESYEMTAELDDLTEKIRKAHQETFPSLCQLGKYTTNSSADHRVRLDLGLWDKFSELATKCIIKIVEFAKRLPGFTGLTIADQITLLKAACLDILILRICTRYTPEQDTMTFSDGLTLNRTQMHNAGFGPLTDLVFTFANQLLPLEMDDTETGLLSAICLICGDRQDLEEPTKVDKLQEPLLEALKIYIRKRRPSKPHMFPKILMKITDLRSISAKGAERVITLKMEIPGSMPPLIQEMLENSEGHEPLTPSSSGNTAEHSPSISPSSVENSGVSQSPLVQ
Put plainly: Effective potency in transcriptional activation assay in CV-1 cells expressing retinoic acid receptor RAR beta. The class given is functional, cell-based.

For assay [4], the target named is T3, Retinoic acid receptor beta. Kind of assay: Inhibition of [3H]ATRA binding to retinoic acid receptor RAR beta.
The target in assay [5] is T4, Retinoic acid receptor RXR-alpha (Homo sapiens, UniProt P19793).
T4 sequence (P19793 whole entry): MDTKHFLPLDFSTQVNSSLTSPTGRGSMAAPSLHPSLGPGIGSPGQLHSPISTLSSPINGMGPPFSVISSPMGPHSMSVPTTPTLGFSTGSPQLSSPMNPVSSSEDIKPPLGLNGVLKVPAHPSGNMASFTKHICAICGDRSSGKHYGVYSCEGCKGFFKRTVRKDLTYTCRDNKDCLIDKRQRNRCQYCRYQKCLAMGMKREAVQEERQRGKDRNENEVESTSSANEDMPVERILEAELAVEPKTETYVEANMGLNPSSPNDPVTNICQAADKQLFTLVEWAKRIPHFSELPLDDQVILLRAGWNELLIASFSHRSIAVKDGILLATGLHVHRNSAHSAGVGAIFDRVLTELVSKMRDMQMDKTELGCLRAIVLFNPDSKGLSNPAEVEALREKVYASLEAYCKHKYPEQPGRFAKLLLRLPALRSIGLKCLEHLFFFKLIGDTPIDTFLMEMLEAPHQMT
Put plainly: Inhibition of [3H]9-cis-RA binding to Retinoid X receptor RXR alpha.

The target in assay [6] is T2, Retinoic acid receptor RXR-gamma. Put plainly: (§1) Effective potency in transcriptional activation assay in CV-1 cells expressing Retinoid X receptor RXR gamma. The class given is cell-based.
The target of assay [7] is T5, Retinoic acid receptor RXR-gamma (Mus musculus) (UniProt P28705).
T5 sequence (whole entry): T2 sequence (P28705 whole entry)
Kind of assay: Percent efficacy for Retinoid X receptor RXR gamma in CV-1 cell transcriptional activation assay. The class given is cell-based.

Assay [8] addresses T6, Retinoic acid receptor alpha (Homo sapiens, UniProt P10276).
T6 sequence (P10276 whole entry): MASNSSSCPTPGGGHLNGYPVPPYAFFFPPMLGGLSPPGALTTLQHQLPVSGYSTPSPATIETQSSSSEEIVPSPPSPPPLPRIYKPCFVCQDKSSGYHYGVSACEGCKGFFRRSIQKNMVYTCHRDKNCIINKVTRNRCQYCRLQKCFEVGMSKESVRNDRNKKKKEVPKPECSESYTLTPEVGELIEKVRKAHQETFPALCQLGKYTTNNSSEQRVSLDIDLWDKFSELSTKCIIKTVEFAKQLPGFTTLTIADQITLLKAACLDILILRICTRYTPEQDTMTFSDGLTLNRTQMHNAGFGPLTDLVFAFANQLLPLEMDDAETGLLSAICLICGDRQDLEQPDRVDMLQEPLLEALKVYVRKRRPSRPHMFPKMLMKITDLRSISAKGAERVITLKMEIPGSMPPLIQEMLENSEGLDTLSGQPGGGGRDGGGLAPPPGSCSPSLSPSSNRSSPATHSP
Kind of assay: Effective potency in transcriptional activation assay in CV-1 cells expressing retinoic acid receptor RAR alpha; Not active. The class given is functional, cell-based.

Assay [9] concerns the target T6, Retinoic acid receptor alpha. Kind of assay: Inhibition of [3H]ATRA binding to retinoic acid receptor RAR alpha.
For assay [10], the target named is T1, Retinoic acid receptor gamma. Put plainly: Effective potency in transcriptional activation assay in CV-1 cells expressing retinoic acid receptor RAR gamma. It is filed as functional, cell-based.
Assay [11] has as its target T4, Retinoic acid receptor RXR-alpha. Kind of assay: Effective potency in transcriptional activation assay in CV-1 cells expressing Retinoid X receptor RXR alpha. It is filed as functional, cell-based.
The target in assay [12] is T7, Retinoic acid receptor RXR-beta (Mus musculus, UniProt P28704).
T7 sequence (P28704 whole entry): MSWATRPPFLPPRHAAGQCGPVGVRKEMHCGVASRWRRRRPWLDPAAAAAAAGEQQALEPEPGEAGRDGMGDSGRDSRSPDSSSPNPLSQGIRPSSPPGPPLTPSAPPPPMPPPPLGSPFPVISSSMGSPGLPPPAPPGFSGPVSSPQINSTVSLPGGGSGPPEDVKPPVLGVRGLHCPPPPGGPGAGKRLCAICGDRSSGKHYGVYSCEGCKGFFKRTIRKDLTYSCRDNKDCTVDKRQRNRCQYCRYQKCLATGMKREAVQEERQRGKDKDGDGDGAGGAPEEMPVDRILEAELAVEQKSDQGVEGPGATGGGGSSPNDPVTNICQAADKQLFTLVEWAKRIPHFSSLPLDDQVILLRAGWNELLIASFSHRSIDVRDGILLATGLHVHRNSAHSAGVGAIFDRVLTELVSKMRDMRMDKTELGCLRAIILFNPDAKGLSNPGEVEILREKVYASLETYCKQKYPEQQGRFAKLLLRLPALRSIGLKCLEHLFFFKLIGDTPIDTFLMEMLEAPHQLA
Put plainly: Effective potency in transcriptional activation assay in CV-1 cells expressing Retinoid X receptor RXR beta. It is filed as functional, cell-based.

Assay [13] concerns the target T8, Retinoic acid receptor RXR-beta (Mus musculus) (UniProt P28704).
T8 sequence (whole entry): T7 sequence (P28704 whole entry)
Put plainly: Percent efficacy for Retinoid X receptor RXR beta in CV-1 cell transcriptional activation assay. It is filed as functional, cell-based.

Assay [14] concerns the target T7, Retinoic acid receptor RXR-beta. Put plainly: Inhibition of [3H]9-cis-RA binding to Retinoid X receptor RXR beta.
The target in assay [15] is T2, Retinoic acid receptor RXR-gamma. The assay is described as §1. It is filed as functional, cell-based.
The target in assay [16] is T3, Retinoic acid receptor beta. To be noted: cv-1.
The target of assay [17] is T1, Retinoic acid receptor gamma. The conditions noted are these: cv-1.

The structures appear in SMILES notation.

Broadly, the Ki is the equilibrium dissociation constant of an inhibitor or competing ligand from its target. A high value points to a looser hold on the target. A word on the EC50: it is the concentration at which the effect is half-maximal. For `CC(/C=C/[C@@]1(C)CCCC1c1ccc2c(c1)C(C)(C)CCC2(C)C)=C\C(=O)O` (single isomer, unassigned), the Ki in assay [1] is greater than 1000 nM; in assay [2], 7 nM; in [4], greater than 1000 nM; in assay [5], 4 nM; in assay [9], greater than 1000 nM; in assay [14] it was 10 nM. For the same molecule, the EC50 in assay [3] was 809 nM; in [6], 16 nM; in assay [8], “Not Active”; in assay [10], 1780 nM; in assay [11], 7 nM; in assay [12] it was 14 nM. For the same molecule, the figures for the Efficacy in assay [7] and in assay [13] were 72% and 110%, respectively.
As for `C=C1C[C@@H](/C=C/C(C)=C/C(=O)O)[C@@H](c2ccc3c(c2)C(C)(C)CCC3(C)C)C1`, the EC50 is 204 nM in assay [15]; “Not Active” in [8]; 169 nM in assay [11]; 220 nM in assay [12]; “Not Active” in assay [16]; “Not Active” in [17]. The Ki in assay [1] was greater than 1000 nM; in [2] it was 161 nM; in assay [4], greater than 1000 nM; in assay [5] it was 66 nM; in assay [9], greater than 1000 nM; in assay [14], 556 nM. Also, the Efficacy in assay [7] came out at 90%; in assay [13] it was 369%.
